Test results: paper PMC5844530, “Fosmetpantotenate (RE-024), a phosphopantothenate replacement therapy for pantothenate kinase-associated neurodegeneration: Mechanism of action and efficacy in nonclinical models” (PLoS ONE, 2018)
Several values for one entry are separate records, joined by “and”; a condition that tells them apart may be missing. Identical values can stand only once.

Legend:
[1] = Pharmacokinetics in whole blood, Sprague-Dawley rats; settings: for % Parent AUCAll: Sprague-Dawley rat, metabolite AUCall/Parent AUCall x 100; for Whole Blood Conc. of compound 1: Sprague-Dawley rats; for concentration at 0.167 h / concentration at 0.33 h: Sprague-Dawley, rat, in vivo, po, Whole Blood Conc. of compound 1, Sprague-Dawley rats
Protocol: (§1) The whole blood samples (0.5 mL) were collected into syringes that were prefilled with 2.5 mL of ice-cold 0.1% formic acid in acetonitrile. The volume ratio of the whole blood to 0.1% formic acid in acetonitrile was 1/5 (v/v). Samples were frozen (-70°C) until analyzed by LC-MS/MS.
(§2) Standard curves and quality control (QC) samples were prepared fresh on the day of analysis by serial dilution of the standard mixture in quenched whole blood (1 part of blood to 5 parts of 0.1% formic acid in acetonitrile) and centrifuged. […] The frozen study samples were thawed in an ice/water bath and centrifuged. Supernatant (50 μL) from standards, QC samples, and study samples was transferred to a 96-well plate and dried completely under nitrogen. The dried residues were reconstituted with 100 μL of 0.1% formic acid in water containing internal standard (5 ng/mL of ^15N/^13C3-RE-024-02) and analyzed by LC-MS/MS.
(§3) LC-MS/MS analysis for blood pharmacokinetic samples: Samples were analyzed using an Agilent 1100 binary pump (Agilent Technologies, Santa Clara, CA, USA), connected to an AB Sciex API 6500 mass spectrometer (SCIEX, Framingham, MA, USA). An electrospray ionization source was used, scanning in the positive mode. […] The chromatography column was a Varian Metasil AQ 120–5 C18 column, 5 μm, 50 x 2.00 mm (Part No. A0530050X020) at ambient temperature, with a 0.5 mL/min flow rate and a 20 μL injection volume. Mobile phase (A) consisted of 0.1% formic acid in water; while mobile phase (B) consisted of 0.1% formic acid in acetonitrile:water (9:1, v/v).
(§4) Quantitation of in vivo samples: Peak areas were integrated using Analyst software (AB Sciex, Concord, Ontario, Canada). […] Calibration standards (at a minimum 7 per curve) were fit by linear regression with (1/x^2) weighting. QC samples were used (triplicate) at 3 concentrations for all tandem mass spectrometry (MS/MS) runs.
(§5) Pharmacokinetic calculations: PK analysis was performed using Phoenix WinNonlin®, Build 6.3.0.395 (Certara, Princeton, NJ, USA) using a non-compartmental model (PO dose = model 200 for extravascular dosing). […] Post-dose concentrations below the limit of quantitation (BLQ) were omitted from calculation.

[2] = Pharmacokinetics in whole blood, cynomolgus monkeys
[3] = Pharmacokinetics in whole blood, CD-1 mice; settings: for % Parent AUCAll: CD1 mouse, metabolite AUCall/Parent AUCall x 100; for Compound 1 Whole Blood Conc.: CD-1 mice, 100 mg/kg RE-024-02 by PO, individual animals
Protocol: as §1, §2, §3, §4, §5

COC(=O)CCNC(=O)[C@@H]1OP(=O)(N[C@@H](C)C(=O)OC)OCC1(C)C (some centres unmarked) [Compound 1]
% Parent AUCAll ([1]; 300 mg/kg PO): 39%
% Parent AUCAll ([1]; 700 mg/kg PO): 22%
Whole Blood Conc. of compound 1 ([1]; single 100 mg/kg RE-024-02 PO, time 0.5, LLOQ 0.60 ng/mL): BQL
Whole Blood Conc. of compound 1 ([1]; single 100 mg/kg RE-024-02 PO, time 0.5, LLOQ 1.58 nM): BQL
Whole Blood Conc. of compound 1 ([1]; single 100 mg/kg RE-024-02 PO, time 1, LLOQ 0.60 ng/mL): BQL
Whole Blood Conc. of compound 1 ([1]; single 100 mg/kg RE-024-02 PO, time 1, LLOQ 1.58 nM): BQL
Whole Blood Conc. of compound 1 ([1]; single 100 mg/kg RE-024-02 PO, time 2, LLOQ 0.60 ng/mL): BQL
Whole Blood Conc. of compound 1 ([1]; single 100 mg/kg RE-024-02 PO, time 2, LLOQ 1.58 nM): BQL
Whole Blood Conc. of compound 1 ([1]; single 100 mg/kg RE-024-02 PO, time 4, LLOQ 0.60 ng/mL): BQL
Whole Blood Conc. of compound 1 ([1]; single 100 mg/kg RE-024-02 PO, time 4, LLOQ 1.58 nM): BQL
Whole Blood Conc. of compound 1 ([1]; single 100 mg/kg RE-024-02 PO, time 8, LLOQ 0.60 ng/mL): BQL
Whole Blood Conc. of compound 1 ([1]; single 100 mg/kg RE-024-02 PO, time 8, LLOQ 1.58 nM): BQL
Whole Blood Conc. of compound 1 ([1]; single 300 mg/kg RE-024-02 PO, time 0.33, LLOQ 0.60 ng/mL, 300 mg/kg): 41.34 ng/mL and 21.6 ng/mL
Whole Blood Conc. of compound 1 ([1]; single 300 mg/kg RE-024-02 PO, time 0.33, LLOQ 1.58 nM, 300 mg/kg): 108.7 nM and 56.79 nM
Whole Blood Conc. of compound 1 ([1]; single 300 mg/kg RE-024-02 PO, time 2, LLOQ 0.60 ng/mL): BQL
Whole Blood Conc. of compound 1 ([1]; single 300 mg/kg RE-024-02 PO, time 2, LLOQ 1.58 nM): BQL
Whole Blood Conc. of compound 1 ([1]; single 300 mg/kg RE-024-02 PO, time 4, LLOQ 0.60 ng/mL): BQL
Whole Blood Conc. of compound 1 ([1]; single 300 mg/kg RE-024-02 PO, time 4, LLOQ 1.58 nM): BQL
Whole Blood Conc. of compound 1 ([1]; single 300 mg/kg RE-024-02 PO, time 8, LLOQ 0.60 ng/mL): BQL
Whole Blood Conc. of compound 1 ([1]; single 300 mg/kg RE-024-02 PO, time 8, LLOQ 1.58 nM): BQL
Whole Blood Conc. of compound 1 ([1]; single 700 mg/kg RE-024-02 PO, time 8, LLOQ 0.60 ng/mL): BQL
Whole Blood Conc. of compound 1 ([1]; single 700 mg/kg RE-024-02 PO, time 8, LLOQ 1.58 nM): BQL
concentration at 0.167 h ([1]; 100 mg/kg, single 100 mg/kg RE-024-02 PO, time 0.167, LLOQ 0.60 ng/mL): 3.88 ng/mL
concentration at 0.167 h ([1]; 100 mg/kg, single 100 mg/kg RE-024-02 PO, time 0.167, LLOQ 1.58 nM): 0.0102 µM
concentration at 0.33 h ([1]; 100 mg/kg, single 100 mg/kg RE-024-02 PO, time 0.33, LLOQ 0.60 ng/mL): 1.21 ng/mL
concentration at 0.33 h ([1]; 100 mg/kg, single 100 mg/kg RE-024-02 PO, time 0.33, LLOQ 1.58 nM): 0.00318 µM
concentration at 0.33 h ([1]; 300 mg/kg, single 300 mg/kg RE-024-02 PO, time 0.33, LLOQ 0.60 ng/mL): 22.6 ng/mL
concentration at 0.33 h ([1]; 300 mg/kg, single 300 mg/kg RE-024-02 PO, time 0.33, LLOQ 1.58 nM): 0.0593 µM
% Parent AUCAll ([2]; Cynomolgus monkey, 300 mg/kg PO, metabolite AUCall/Parent AUCall x 100): 19%
concentration at 0.083 h ([2]; cynomolgus monkey, in vivo, po, 300 mg/kg, Concentration of compound 1 in whole blood, cynomolgus monkeys, single oral 300 mg/kg fosmetpantotenate, 0.083 hr, sum of diastereomers, LLOQ 1.58 nM): 0.0172 µM
concentration at 0.5 h ([2]; cynomolgus monkey, in vivo, po, 300 mg/kg, Concentration of compound 1 in whole blood, cynomolgus monkeys, single oral 300 mg/kg fosmetpantotenate, 0.5 hr, sum of diastereomers, LLOQ 1.58 nM): 2.48 µM
concentration at 4 h ([2]; cynomolgus monkey, in vivo, po, 300 mg/kg, Concentration of compound 1 in whole blood, cynomolgus monkeys, single oral 300 mg/kg fosmetpantotenate, 4 hr, sum of diastereomers, LLOQ 1.58 nM): 0.0546 µM
concentration at 8 h ([2]; cynomolgus monkey, in vivo, po, 300 mg/kg, Concentration of compound 1 in whole blood, cynomolgus monkeys, single oral 300 mg/kg fosmetpantotenate, 8 hr, sum of diastereomers, LLOQ 1.58 nM): 0.00789 µM
Concentration of compound 1 in whole blood ([2]; cynomolgus monkeys, single oral 300 mg/kg fosmetpantotenate, 0.083 hr, sum of diastereomers, LLOQ 1.58 nM, 300 mg/kg): 0.01128 µM
Concentration of compound 1 in whole blood ([2]; cynomolgus monkeys, single oral 300 mg/kg fosmetpantotenate, 0.5 hr, sum of diastereomers, LLOQ 1.58 nM, 300 mg/kg): 3.16036 µM
Concentration of compound 1 in whole blood ([2]; cynomolgus monkeys, single oral 300 mg/kg fosmetpantotenate, 4 hr, sum of diastereomers, LLOQ 1.58 nM, 300 mg/kg): 0.09623 µM
Concentration of compound 1 in whole blood ([2]; cynomolgus monkeys, single oral 300 mg/kg fosmetpantotenate, 8 hr, sum of diastereomers, LLOQ 1.58 nM, 300 mg/kg): 0.00457 µM
% Parent AUCAll ([3]; 100 mg/kg PO): 129%
% Parent AUCAll ([3]; 300 mg/kg PO): 307%
% Parent AUCAll ([3]; 700 mg/kg PO): 257%
Compound 1 Whole Blood Conc. ([3]; 0.033 hr, LLOQ 0.6 ng/mL, 100 mg/kg): 4.6 ng/mL and 4 ng/mL and 74.4 ng/mL and 3.2 ng/mL
Compound 1 Whole Blood Conc. ([3]; 0.033 hr, LLOQ 1.6 nM, 100 mg/kg): 12.2 nM and 10.6 nM and 195.6 nM and 8.4 nM
Compound 1 Whole Blood Conc. ([3]; 0.083 hr, LLOQ 0.6 ng/mL, 100 mg/kg): BQL and 1 ng/mL
Compound 1 Whole Blood Conc. ([3]; 0.083 hr, LLOQ 1.6 nM, 100 mg/kg): BQL and 2.7 nM
Compound 1 Whole Blood Conc. ([3]; 0.167 hr, LLOQ 0.6 ng/mL, 100 mg/kg): 4.3 ng/mL and BQL and 10.8 ng/mL
Compound 1 Whole Blood Conc. ([3]; 0.167 hr, LLOQ 1.6 nM, 100 mg/kg): 11.4 nM and BQL and 28.4 nM
Compound 1 Whole Blood Conc. ([3]; 0.333 hr, LLOQ 0.6 ng/mL, 100 mg/kg): BQL
Compound 1 Whole Blood Conc. ([3]; 0.333 hr, LLOQ 1.6 nM, 100 mg/kg): BQL
Compound 1 Whole Blood Conc. ([3]; 0.5 hr, LLOQ 0.6 ng/mL): BQL
Compound 1 Whole Blood Conc. ([3]; 0.5 hr, LLOQ 1.6 nM): BQL
Compound 1 Whole Blood Conc. ([3]; 1 hr, LLOQ 0.6 ng/mL): BQL
Compound 1 Whole Blood Conc. ([3]; 1 hr, LLOQ 1.6 nM): BQL
Compound 1 Whole Blood Conc. ([3]; 2 hr, LLOQ 0.6 ng/mL): BQL
